Paper PMC9863764, “Roles of Human Liver Cytochrome P450 Enzymes in Tenatoprazole Metabolism” (Pharmaceutics, 2022)
Values joined by “and” are separate entries in the source; they are usually repeats but may differ in a detail not shown here. Equal entries are not always repeated.

Experiments:
Assay type in all cases: in vitro ADME
[1] = target: T1, CYP2C9 (Homo sapiens, UniProt P11712); test: Tenatoprazole oxidation by recombinant CYP2C9; details: substrate tenatoprazole 0.10 mM, 0.20 μM CYP2C9
T1 construct: made in house; host or cells: Escherichia coli (membrane fractions)
Method: (§1) Pooled liver microsomes from human samples were obtained from ThermoFisher Scientific (Waltham, MA, USA). Recombinant human P450s were heterologously expressed in Escherichia coli with a pCW vector containing human P450 cDNA (CYP 3A4, 2C9, 2C19, 1A2, 1B1, 2E1, 2D6, and 2A6) and rat NADPH-P450 reductase (CPR). Membrane fractions expressing both P450 and CPR of E. coli were prepared as described previously and were used for the catalytic activity assays.
(§2) The reaction mixture included 0.20 μM P450, 0.40 μM CPR, and tenatoprazole (0.10 mM) in 0.25 mL of 0.10 M potassium phosphate buffer (pH 7.4). The reaction was started by adding NGS and the incubation was continued for the indicated time at 37 °C. Incubation was then stopped by adding ice-chilled ethyl acetate (0.50 mL) and omeprazole (IS) was added to a final concentration of 20 μM. The mixtures were vortexed for 2 min, centrifuged at 1000× g for 20 min, and then the organic layer was taken for drying under nitrogen gas stream. The residues were dissolved in 180 μL of HPLC mobile phase and 30 μL was injected onto a Gemini C18 column (4.6 × 150 mm, 5 μm; Phenomenex, Torrance, CA, USA). The products formed were analyzed by HPLC at A302. […]

[2] = target: T2, CYP2D6 (Homo sapiens, UniProt P10635); test: Tenatoprazole oxidation by recombinant CYP2D6; details: substrate tenatoprazole 0.10 mM, 0.20 μM CYP2D6
T2 construct: made in house; host or cells: Escherichia coli (membrane fractions)
Method: as §1, §2

[3] = target: T3, CYP2A6 (Homo sapiens, UniProt P11509); test: Tenatoprazole oxidation by recombinant CYP2A6; details: substrate tenatoprazole 0.10 mM, 0.20 μM CYP2A6; no apparent formation
T3 construct: made in house; host or cells: Escherichia coli (membrane fractions)
T3 sequence (P11509 1-494): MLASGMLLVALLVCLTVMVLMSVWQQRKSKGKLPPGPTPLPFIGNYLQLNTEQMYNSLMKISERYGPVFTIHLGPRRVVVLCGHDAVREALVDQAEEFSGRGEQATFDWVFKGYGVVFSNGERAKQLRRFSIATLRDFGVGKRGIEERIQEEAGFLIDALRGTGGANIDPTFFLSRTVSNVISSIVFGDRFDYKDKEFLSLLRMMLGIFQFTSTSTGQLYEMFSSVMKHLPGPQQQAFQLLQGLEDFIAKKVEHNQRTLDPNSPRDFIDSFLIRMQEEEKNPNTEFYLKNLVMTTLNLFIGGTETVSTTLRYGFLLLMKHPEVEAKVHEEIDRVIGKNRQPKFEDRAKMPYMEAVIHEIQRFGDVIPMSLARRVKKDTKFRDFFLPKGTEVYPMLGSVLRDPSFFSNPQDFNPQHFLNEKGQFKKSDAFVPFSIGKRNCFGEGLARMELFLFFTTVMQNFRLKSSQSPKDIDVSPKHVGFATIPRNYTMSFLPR
Method: as §1
(§3) The reaction mixture included 0.20 μM P450, 0.40 μM CPR, and tenatoprazole (0.10 mM) in 0.25 mL of 0.10 M potassium phosphate buffer (pH 7.4). The reaction was started by adding NGS and the incubation was continued for the indicated time at 37 °C. Incubation was then stopped by adding ice-chilled ethyl acetate (0.50 mL) and omeprazole (IS) was added to a final concentration of 20 μM. The mixtures were vortexed for 2 min, centrifuged at 1000× g for 20 min, and then the organic layer was taken for drying under nitrogen gas stream. The residues were dissolved in 180 μL of HPLC mobile phase and 30 μL was injected onto a Gemini C18 column (4.6 × 150 mm, 5 μm; Phenomenex, Torrance, CA, USA). The products formed were analyzed by HPLC at A302. The HPLC profile of the authentic chemicals (i.e., tenatoprazole, tenatoprazole sulfide, and their metabolites) were used to identify the major metabolites of tenatoprazole and tenatoprazole sulfide produced by the recombinant P450s.
(§4) Figure S6. HPLC analyses of the products derived from the oxidation of tenatoprazole catalyzed by recombinant human P450s. The reaction mixture included 0.20 μM P450, 0.40 μM CPR, and 0.10 mM tenatoprazole in 0.25 mL of potassium phosphate buffer (0.10 M, pH 7.4). The reaction was started by adding an NGS at 37 °C for 60 min. (A) CYP1A2; (B) CYP1B1; (C) CYP2A6; (D) CYP2C9; (E) CYP2D6; (F) CYP2E1. The arrows with solid and broken lines indicate the retention times of 5’-OH tenatoprazole (6.6 min) and 5’-OH tenatoprazole sulfide (8.4 min), respectively.
(§5) (1 picture or pasted object on this page, not shown here)

[4] = target: T4, human CYP2C19 (Homo sapiens, UniProt P33261); test: Steady-state kinetics of tenatoprazole oxidation by recombinant CYP2C19
T4 construct: made in house; host or cells: Escherichia coli (membrane fractions)
Method: Pooled liver microsomes from human samples were obtained from ThermoFisher Scientific (Waltham, MA, USA). […] Membrane fractions expressing both P450 and CPR of E. coli were prepared as described previously and were used for the catalytic activity assays. […] The reaction was started by adding NGS and the incubation was continued for the indicated time at 37 °C. Incubation was then stopped by adding ice-chilled ethyl acetate (0.50 mL) and omeprazole (IS) was added to a final concentration of 20 μM. […] Phenomenex, Torrance, CA, USA). The products formed were analyzed by HPLC at […]. […] The kinetic parameters (kcat and Km) were determined by using a Michaelis-Menten nonlinear regression analysis with GraphPad Prism (GraphPad Software, San Diego, CA, USA).

[5] = target: T5, CYP1A2 (Homo sapiens, UniProt P05177); test: Tenatoprazole oxidation by recombinant CYP1A2; details: substrate tenatoprazole 0.10 mM, 0.20 μM CYP1A2; no apparent formation
T5 construct: made in house; host or cells: Escherichia coli (membrane fractions)
T5 sequence (P05177 1-516): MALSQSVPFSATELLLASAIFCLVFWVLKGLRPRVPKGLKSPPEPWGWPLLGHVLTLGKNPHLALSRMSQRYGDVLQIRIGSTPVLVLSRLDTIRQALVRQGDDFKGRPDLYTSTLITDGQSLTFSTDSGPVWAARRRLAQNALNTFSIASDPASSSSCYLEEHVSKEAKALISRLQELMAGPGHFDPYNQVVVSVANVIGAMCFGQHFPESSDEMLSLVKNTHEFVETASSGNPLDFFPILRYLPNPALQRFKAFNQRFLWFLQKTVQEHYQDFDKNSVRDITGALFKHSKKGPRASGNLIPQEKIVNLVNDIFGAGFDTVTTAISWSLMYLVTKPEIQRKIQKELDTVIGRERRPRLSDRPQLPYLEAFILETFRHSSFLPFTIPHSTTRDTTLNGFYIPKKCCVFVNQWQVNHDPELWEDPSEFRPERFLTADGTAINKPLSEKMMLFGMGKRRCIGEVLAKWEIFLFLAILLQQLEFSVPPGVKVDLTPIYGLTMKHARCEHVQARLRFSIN
Method: as §1, §3, §4, §5

T4 sequence (P33261 whole entry): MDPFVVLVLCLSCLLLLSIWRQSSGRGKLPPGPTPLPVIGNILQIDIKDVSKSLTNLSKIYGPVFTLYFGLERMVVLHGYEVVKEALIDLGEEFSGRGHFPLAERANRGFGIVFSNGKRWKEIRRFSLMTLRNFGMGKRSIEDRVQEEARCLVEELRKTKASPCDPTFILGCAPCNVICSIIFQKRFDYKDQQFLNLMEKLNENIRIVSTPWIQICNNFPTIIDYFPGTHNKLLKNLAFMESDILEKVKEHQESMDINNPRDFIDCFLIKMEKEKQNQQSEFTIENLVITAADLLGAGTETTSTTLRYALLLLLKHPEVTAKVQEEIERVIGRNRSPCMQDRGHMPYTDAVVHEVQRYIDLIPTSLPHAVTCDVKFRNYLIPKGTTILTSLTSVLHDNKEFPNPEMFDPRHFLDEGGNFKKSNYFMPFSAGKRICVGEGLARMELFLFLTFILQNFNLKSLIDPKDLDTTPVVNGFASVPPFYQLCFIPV
T1 sequence (P11712 whole entry): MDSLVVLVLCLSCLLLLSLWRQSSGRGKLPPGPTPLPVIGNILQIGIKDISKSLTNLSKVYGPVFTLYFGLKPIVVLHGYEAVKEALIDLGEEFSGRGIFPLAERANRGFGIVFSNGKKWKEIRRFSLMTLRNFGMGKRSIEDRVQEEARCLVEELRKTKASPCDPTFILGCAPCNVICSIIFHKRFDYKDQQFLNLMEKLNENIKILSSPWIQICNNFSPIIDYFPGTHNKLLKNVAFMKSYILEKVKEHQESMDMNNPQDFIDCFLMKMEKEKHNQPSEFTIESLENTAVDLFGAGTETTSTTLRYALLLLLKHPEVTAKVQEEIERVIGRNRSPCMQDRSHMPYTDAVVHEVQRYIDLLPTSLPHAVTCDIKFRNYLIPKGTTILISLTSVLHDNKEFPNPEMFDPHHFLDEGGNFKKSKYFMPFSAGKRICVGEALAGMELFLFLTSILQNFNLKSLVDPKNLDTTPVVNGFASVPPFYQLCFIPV
T2 sequence (P10635 whole entry): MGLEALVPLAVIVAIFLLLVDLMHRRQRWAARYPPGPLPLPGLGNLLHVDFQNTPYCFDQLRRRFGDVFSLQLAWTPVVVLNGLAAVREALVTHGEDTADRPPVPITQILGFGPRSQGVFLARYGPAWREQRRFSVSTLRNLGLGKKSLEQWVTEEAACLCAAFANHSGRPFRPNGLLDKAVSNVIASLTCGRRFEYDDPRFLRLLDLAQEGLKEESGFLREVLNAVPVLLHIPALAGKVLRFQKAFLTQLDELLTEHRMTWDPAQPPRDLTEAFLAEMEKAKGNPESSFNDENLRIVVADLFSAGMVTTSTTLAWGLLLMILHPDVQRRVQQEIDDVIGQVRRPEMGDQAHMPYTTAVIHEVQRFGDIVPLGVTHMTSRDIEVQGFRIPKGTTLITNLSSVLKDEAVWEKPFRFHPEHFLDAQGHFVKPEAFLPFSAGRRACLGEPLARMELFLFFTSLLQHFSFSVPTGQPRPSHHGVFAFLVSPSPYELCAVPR

| SMILES | formation rate of metabolite [1] | formation rate of metabolite [2] | formation rate of metabolite [3] | fold higher catalytic efficiency of CYP2C19 than CYP3A4 ([4]; 5′-OH tenatoprazole formation from tenatoprazole) | kcat of product formation ([4]; substrate tenatoprazole (1–500 μM), recombinant CYP2C19 0.20 μM, 37 °C, 5 min, label = product formed) | formation rate of metabolite [5] |
| --- | --- | --- | --- | --- | --- | --- |
| COc1ccc2[nH]c([S+]([O-])Cc3ncc(CO)c(OC)c3C)nc2n1 (centres unmarked) [5′-OH tenatoprazole, 5′-hydroxy tenatoprazole] | 0.1 min⁻¹ | 0.1 min⁻¹ | < 0.05 nmol product/min/nmol P450 | 63 fold | 0.0667 s⁻¹ and 0.0667 ± 0.0033 s⁻¹ | < 0.05 nmol product/min/nmol P450 |
| COc1ccc2[nH]c(S(=O)(=O)Cc3ncc(C)c(OC)c3C)nc2n1 [tenatoprazole sulfone] | – | – | < 0.05 nmol product/min/nmol P450 | – | – | < 0.05 nmol product/min/nmol P450 |
